Source: patent US20260133182A1, “METHOD OF DETERMINING FUSOGENIC POTENTIAL OF SPERM AND USE THEREOF IN ASSISTED FERTILIZATION AND DRUG SCREENING” (Technion Research & Development Foundation Limited, priority 2023, published 2026)

Tested on: BHK cells expressing JUNO co-incubated with capacitated mouse sperm
Assay: Sperm-to-BHK fusion and multinucleation
Format: cell-based, hamster
Conditions: JUNO-transfected BHK cells + mouse sperm
Protocol: In this study, the present inventors used BHK cells (Cat #CCL-10; ATCC, RRID: CVCL_1915) which were grown and maintained in DMEM containing 10% FBS. Cells were cultured at 37° C. in 5% CO2. Plasmids were transfected into cells using 2 μl jetPRIME (PolyPlus-transfection) per μg of DNA in 100 μl of reaction buffer for every ml of medium.
Sperm were recovered by incising the cauda epididymis, obtained from adult male mice, in 300 μl of mHTF medium (Kito et al. 2004) supplemented with 4 mg/ml of BSA. The sperm were diluted in fresh medium to a concentration of 5×10^6 cells/ml and incubated for 90 min at 37° C. and 5% CO2 to induce capacitation.
BHK cells were grown on 24-well glass bottom tissue-culture plates. 24 h after plating, cells were transfected with 0.25 μg pcDNA 3.1 -EGFP-MBD-nls plasmids and 0.5 μg of either pCI::H2B-RFP or pCI::JUNO::H2B-RFP. […] Multinucleation percentage was determined as the ratio between the number of nuclei in multinucleated cells (NuM) and the total number of nuclei fluorescent cells (NuF), as follows: % of multinucleation=(NuM/NuF)×100. 500 nuclei (NuF) were counted in each independent repetition (experimental point). In some cases, the number of sperm fused was determined by evaluating the transfer of EGFP-MBD-nls signal from the BHK cell to the sperm nuclei (number of fused sperm/500 BHK cells). […]

Structure (SMILES) | multinucleation (% of multinucleation) (20 μM FdUdr) | levels of multinucleation (% of multinucleation) (4 h, 200 μg/ml cycloheximide vs control)
O=c1[nH]c(=O)n([C@H]2C[C@H](O)[C@@H](CO)O2)cc1F [FdUdr, 5-fluoro-2′-deoxyuridine] | does not inhibit | –
C[C@@H]1C[C@@H]([C@H](O)CC2CC(=O)NC(=O)C2)C(=O)[C@@H](C)C1 [cycloheximide] | – | no differences
